Patent US20230085307A1, “PYRIDAZINONE COMPOUND AND HERBICIDE” (NISSAN CHEMICAL CORPORATION, priority 2019, published 2023)

What was measured:
Chinese sprangletop = experiment: Test Example 3: herbicidal effect by foliage application, Wagner pot (Table 18, symbol D); format: in vivo, chinese sprangletop (Leptochloa chinensis); conditions: 320 g/ha
Summary of the method: (§1)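 Plants were sown in alluvial soil held under 0.1–0.5 cm standing water and grown 14 days in a greenhouse at 25–30 °C. An emulsifiable formulation, water-diluted to the set dose, was then sprayed onto the foliage, and effects were scored three weeks later using previously defined criteria.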

rice flat sedge = experiment: Test Example 3: herbicidal effect by foliage application, Wagner pot (Table 18, symbol E); format: in vivo, rice flat sedge (Cyperus iria); conditions: 320 g/ha
Summary of the method: as §1

velvetleaf [1] = experiment: Test Example 4: herbicidal effect by soil treatment (Table 19, symbol M); format: in vivo, velvetleaf (Abutilon theophrasti); conditions: amount of applied herbicide 320 g/ha
Summary of the method: (§2)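 Scoring uses the grading scale of an earlier test, three weeks post-application. Treatment consists of spraying a diluted emulsion formulation across the surface of sterilized diluvial soil in which seeds are buried near 1.5 cm deep; boxes are kept in a greenhouse between 25° C. and 30° C.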

wild oat [2] = experiment: Test Example 5: herbicidal effect by foliage application, plastic box (Table 20, symbol I); format: in vivo, wild oat (Avena fatua); conditions: foliage application, 320 g/ha, three weeks after application
Summary of the method: (§3)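 Post-emergence foliar test in sterilized diluvial soil. Compound applied as water-diluted emulsion at a predetermined rate to 14-day-old plants; evaluation at three weeks.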

blackgrass [3] = experiment: Test Example 4: herbicidal effect by soil treatment (Table 19, symbol J); format: in vivo, blackgrass (Alopecurus myosuroides); conditions: amount of applied herbicide 320 g/ha
Summary of the method: as §2

green foxtail [4] = experiment: Test Example 4: herbicidal effect by soil treatment (Table 19, symbol G); format: in vivo, green foxtail (Setaria viridis); conditions: amount of applied herbicide 320 g/ha
Summary of the method: as §2

windgrass [5] = experiment: Test Example 4: herbicidal effect by soil treatment (Table 19, symbol L); format: in vivo, windgrass (Apera spica-venti); conditions: amount of applied herbicide 320 g/ha
Summary of the method: as §2

barnyard grass [6] = experiment: Test Example 3: herbicidal effect by foliage application, Wagner pot (Table 18, symbol H); format: in vivo, barnyard grass (Echinochloa crus-galli); conditions: 320 g/ha
Summary of the method: as §1

barnyard grass [7] = experiment: Test Example 5: herbicidal effect by foliage application, plastic box (Table 20, symbol H); format: in vivo, barnyard grass (Echinochloa crus-galli); conditions: foliage application, 320 g/ha, three weeks after application
Summary of the method: as §3

velvetleaf [8] = experiment: Test Example 5: herbicidal effect by foliage application, plastic box (Table 20, symbol M); format: in vivo, velvetleaf (Abutilon theophrasti); conditions: foliage application, 320 g/ha, three weeks after application
Summary of the method: as §3

windgrass [9] = experiment: Test Example 5: herbicidal effect by foliage application, plastic box (Table 20, symbol L); format: in vivo, windgrass (Apera spica-venti); conditions: foliage application, 320 g/ha, three weeks after application
Summary of the method: as §3

chickweed [10] = experiment: Test Example 4: herbicidal effect by soil treatment (Table 19, symbol P); format: in vivo, common chickweed (Stellaria media); conditions: amount of applied herbicide 320 g/ha
Summary of the method: as §2

barnyard grass [11] = experiment: Test Example 4: herbicidal effect by soil treatment (Table 19, symbol H); format: in vivo, barnyard grass (Echinochloa crus-galli); conditions: amount of applied herbicide 320 g/ha
Summary of the method: as §2

green foxtail [12] = experiment: Test Example 5: herbicidal effect by foliage application, plastic box (Table 20, symbol G); format: in vivo, green foxtail (Setaria viridis); conditions: foliage application, 320 g/ha, three weeks after application
Summary of the method: as §3

southern crabgrass [13] = experiment: Test Example 5: herbicidal effect by foliage application, plastic box (Table 20, symbol F); format: in vivo, southern crabgrass (Digitaria ciliaris); conditions: foliage application, 320 g/ha, three weeks after application
Summary of the method: as §3

Italian ryegrass [14] = experiment: Test Example 4: herbicidal effect by soil treatment (Table 19, symbol K); format: in vivo, Italian ryegrass (Lolium multiflorum); conditions: amount of applied herbicide 320 g/ha
Summary of the method: as §2

lambsquarters [15] = experiment: Test Example 4: herbicidal effect by soil treatment (Table 19, symbol O); format: in vivo, lambsquarters (Chenopodium album); conditions: amount of applied herbicide 320 g/ha
Summary of the method: as §2

blackgrass [16] = experiment: Test Example 5: herbicidal effect by foliage application, plastic box (Table 20, symbol J); format: in vivo, blackgrass (Alopecurus myosuroides); conditions: foliage application, 320 g/ha, three weeks after application
Summary of the method: as §3

wild oat [17] = experiment: Test Example 4: herbicidal effect by soil treatment (Table 19, symbol I); format: in vivo, wild oat (Avena fatua); conditions: amount of applied herbicide 320 g/ha
Summary of the method: as §2

southern crabgrass [18] = experiment: Test Example 4: herbicidal effect by soil treatment (Table 19, symbol F); format: in vivo, southern crabgrass (Digitaria ciliaris); conditions: amount of applied herbicide 320 g/ha
Summary of the method: as §2

lambsquarters [19] = experiment: Test Example 5: herbicidal effect by foliage application, plastic box (Table 20, symbol O); format: in vivo, lambsquarters (Chenopodium album); conditions: foliage application, 320 g/ha, three weeks after application
Summary of the method: as §3

redroot pigweed [20] = experiment: Test Example 5: herbicidal effect by foliage application, plastic box (Table 20, symbol N); format: in vivo, redroot pigweed (Amaranthus retroflexus); conditions: foliage application, 320 g/ha, three weeks after application
Summary of the method: as §3

chickweed [21] = experiment: Test Example 5: herbicidal effect by foliage application, plastic box (Table 20, symbol P); format: in vivo, common chickweed (Stellaria media); conditions: foliage application, 320 g/ha, three weeks after application
Summary of the method: as §3

persian speedwell [22] = experiment: Test Example 4: herbicidal effect by soil treatment (Table 19, symbol R); format: in vivo, Persian speedwell (Veronica persica); conditions: amount of applied herbicide 320 g/ha
Summary of the method: as §2

false cleavers [23] = experiment: Test Example 4: herbicidal effect by soil treatment (Table 19, symbol Q); format: in vivo, false cleavers (Galium spurium); conditions: amount of applied herbicide 320 g/ha
Summary of the method: as §2

redroot pigweed [24] = experiment: Test Example 4: herbicidal effect by soil treatment (Table 19, symbol N); format: in vivo, redroot pigweed (Amaranthus retroflexus); conditions: amount of applied herbicide 320 g/ha
Summary of the method: as §2

persian speedwell [25] = experiment: Test Example 5: herbicidal effect by foliage application, plastic box (Table 20, symbol R); format: in vivo, Persian speedwell (Veronica persica); conditions: foliage application, 320 g/ha, three weeks after application
Summary of the method: as §3

Italian ryegrass [26] = experiment: Test Example 5: herbicidal effect by foliage application, plastic box (Table 20, symbol K); format: in vivo, Italian ryegrass (Lolium multiflorum); conditions: foliage application, 320 g/ha, three weeks after application
Summary of the method: as §3

false cleavers [27] = experiment: Test Example 5: herbicidal effect by foliage application, plastic box (Table 20, symbol Q); format: in vivo, false cleavers (Galium spurium); conditions: foliage application, 320 g/ha, three weeks after application
Summary of the method: as §3

Structure (SMILES)	herbicidal effect on D (Chinese sprangletop), rating 0-5 (Chinese sprangletop)	herbicidal effect on E (rice flat sedge), rating 0-5 (rice flat sedge)	herbicidal effect rating, M: velvetleaf (velvetleaf [1])	herbicidal effect grade, I: wild oat (wild oat [2])	herbicidal effect rating, J: blackgrass (blackgrass [3])	herbicidal effect rating, G: green foxtail (green foxtail [4])	herbicidal effect rating, L: windgrass (windgrass [5])	herbicidal effect on H (barnyard grass), rating 0-5 (barnyard grass [6])	herbicidal effect grade, H: barnyard grass (barnyard grass [7])	herbicidal effect grade, M: velvetleaf (velvetleaf [8])	herbicidal effect grade, L: windgrass (windgrass [9])	herbicidal effect rating, P: chickweed (chickweed [10])	herbicidal effect rating, H: barnyard grass (barnyard grass [11])	herbicidal effect grade, G: green foxtail (green foxtail [12])	herbicidal effect grade, F: southern crabgrass (southern crabgrass [13])	herbicidal effect rating, K: Italian ryegrass (Italian ryegrass [14])	herbicidal effect rating, O: lambsquarters (lambsquarters [15])	herbicidal effect grade, J: blackgrass (blackgrass [16])	herbicidal effect rating, I: wild oat (wild oat [17])	herbicidal effect rating, F: southern crabgrass (southern crabgrass [18])	further results
COc1cc(Cl)ccc1-c1sc2ccccc2c1-c1c(O)c(C)nn(C)c1=O [1-060]	3 (Herbicidal rate of 40% or more and less than 70%)	4 (Herbicidal rate of 70% or more and less than 90%)	0 (Herbicidal rate of 5% or less (almost no effect))	3 (Herbicidal rate of 40% or more and less than 70%)	0 (Herbicidal rate of 5% or less (almost no effect))	0 (Herbicidal rate of 5% or less (almost no effect))	1 (Herbicidal rate of 5% or more and less than 20%)	4 (Herbicidal rate of 70% or more and less than 90%)	3 (Herbicidal rate of 40% or more and less than 70%)	3 (Herbicidal rate of 40% or more and less than 70%)	5 (Herbicidal rate of 90% or more (almost completely withered))	4 (Herbicidal rate of 70% or more and less than 90%)	0 (Herbicidal rate of 5% or less (almost no effect))	3 (Herbicidal rate of 40% or more and less than 70%)	3 (Herbicidal rate of 40% or more and less than 70%)	0 (Herbicidal rate of 5% or less (almost no effect))	0 (Herbicidal rate of 5% or less (almost no effect))	3 (Herbicidal rate of 40% or more and less than 70%)	0 (Herbicidal rate of 5% or less (almost no effect))	0 (Herbicidal rate of 5% or less (almost no effect))	herbicidal effect grade, O: lambsquarters (lambsquarters [19]): 5 (Herbicidal rate of 90% or more (almost completely withered)); herbicidal effect grade, N: redroot pigweed (redroot pigweed [20]): 3 (Herbicidal rate of 40% or more and less than 70%); herbicidal effect grade, P: chickweed (chickweed [21]): 5 (Herbicidal rate of 90% or more (almost completely withered)); herbicidal effect rating, R: persian speedwell (persian speedwell [22]): 5 (Herbicidal rate of 90% or more (almost completely withered)); herbicidal effect rating, Q: false cleavers (false cleavers [23]): 3 (Herbicidal rate of 40% or more and less than 70%); herbicidal effect rating, N: redroot pigweed (redroot pigweed [24]): 0 (Herbicidal rate of 5% or less (almost no effect)); herbicidal effect grade, R: persian speedwell (persian speedwell [25]): 5 (Herbicidal rate of 90% or more (almost completely withered)); herbicidal effect grade, K: Italian ryegrass (Italian ryegrass [26]): 3 (Herbicidal rate of 40% or more and less than 70%); herbicidal effect grade, Q: false cleavers (false cleavers [27]): 5 (Herbicidal rate of 90% or more (almost completely withered))
CCCC(=O)Oc1c(C)nn(C)c(=O)c1-c1c(-c2cc(C)c(OC)c(C)c2)sc2ccccc12 [1-075]	0 (Herbicidal rate of 5% or less (almost no effect))	5 (Herbicidal rate of 90% or more (almost completely withered))	0 (Herbicidal rate of 5% or less (almost no effect))	0 (Herbicidal rate of 5% or less (almost no effect))	0 (Herbicidal rate of 5% or less (almost no effect))	0 (Herbicidal rate of 5% or less (almost no effect))	0 (Herbicidal rate of 5% or less (almost no effect))	3 (Herbicidal rate of 40% or more and less than 70%)	0 (Herbicidal rate of 5% or less (almost no effect))	0 (Herbicidal rate of 5% or less (almost no effect))	0 (Herbicidal rate of 5% or less (almost no effect))	0 (Herbicidal rate of 5% or less (almost no effect))	1 (Herbicidal rate of 5% or more and less than 20%)	0 (Herbicidal rate of 5% or less (almost no effect))	0 (Herbicidal rate of 5% or less (almost no effect))	0 (Herbicidal rate of 5% or less (almost no effect))	0 (Herbicidal rate of 5% or less (almost no effect))	0 (Herbicidal rate of 5% or less (almost no effect))	0 (Herbicidal rate of 5% or less (almost no effect))	0 (Herbicidal rate of 5% or less (almost no effect))	herbicidal effect grade, O: lambsquarters (lambsquarters [19]): 0 (Herbicidal rate of 5% or less (almost no effect)); herbicidal effect grade, N: redroot pigweed (redroot pigweed [20]): 3 (Herbicidal rate of 40% or more and less than 70%); herbicidal effect grade, P: chickweed (chickweed [21]): 0 (Herbicidal rate of 5% or less (almost no effect)); herbicidal effect rating, R: persian speedwell (persian speedwell [22]): 3 (Herbicidal rate of 40% or more and less than 70%); herbicidal effect rating, Q: false cleavers (false cleavers [23]): 0 (Herbicidal rate of 5% or less (almost no effect)); herbicidal effect rating, N: redroot pigweed (redroot pigweed [24]): 0 (Herbicidal rate of 5% or less (almost no effect)); herbicidal effect grade, R: persian speedwell (persian speedwell [25]): 5 (Herbicidal rate of 90% or more (almost completely withered)); herbicidal effect grade, K: Italian ryegrass (Italian ryegrass [26]): 3 (Herbicidal rate of 40% or more and less than 70%); herbicidal effect grade, Q: false cleavers (false cleavers [27]): 0 (Herbicidal rate of 5% or less (almost no effect))
